Data: patent publication US20100280117A1 (Xanodyne Pharmaceuticals, Inc., priority 2009, published 2010)

Tests used:
[1] = system: patients diagnosed with menorrhagia; assay: Menorrhagia Instrument (MI) validation sub-study, treatment cohort; assay type: in vivo, human (women)
Method: The MI was evaluated in a sub population of patients enrolled in a clinical trial designed to assess the safety and efficacy of tranexamic acid at an oral dose of 3.9 g administered daily for up to 5 days during each menstrual period. Two groups of patients were used to assess the MI, one group of patients were those diagnosed with menorrhagia and undergoing treatment. The second group was an age matched normal group. The sub-study was designed: to collect sufficient quantitative data to support the construct-related validation of the MI measures; to collect sufficient quantitative data to support the assessment of meaningful/important change in blood loss to the women; to conduct a test/retest evaluation of the instrument, and to address the reliability of the MI measures.
A total of 262 women completed the MI. […] The MI measures 1-5 were administered at baseline and at the subsequent first and second non-treatment periods for the subjects in the normal cohort The MI measure 6 was administered and data collected, at Month 1 and Month 2. The Ruta Menorrhagia Questionnaire, SF-36 Health Survey and the MI were completed by the subject before visit procedures were performed. A subset of at least 50 subjects were asked to return to the study site 7 to 10 days after the baseline Visit but before the next menstrual period starts to complete the MI a second time.
A total of 177 patients were enrolled into the sub-study. […] The 149 patients remaining were intended to be age matched. The majority of patients in the study were in their late 30's or early 40's. Because of the difficulty of enrolling sufficient numbers of women with normal menstrual periods in this age bracket 18 evaluable patients were not age matched. A total of 131 evaluable patients were age matched. A sub-set of 80 evaluable patients participated in the test/retest segment of the validation. Of these patients 11 were evaluable but not age matched. Data from all 80 patients were used for statistical evaluation of the test/re-test correlations.
The following Measures were summarized and statistically analyzed: • MI measure1—Blood Loss Rating • MI measure 2—Limitation of Work Outside or Inside the Home • MI measure 3—Limitation of Physical Activities • MI measure 4—Limitation of Social or Leisure Activities • MI measure 6/6a/6b—Menstrual Blood Loss During Last Period • MI measure 6c—Meaningfulness of Change in Menstrual Blood Loss
The MI consisted of 4 individual measures (1-4) that were analyzed separately for validation. No summative scale was derived. […] Measures 6, 6a and 6b dealt with menstrual blood loss relative to the previous menstrual period. The answers to the measures in the subparts of measure 6, were combined to produce a 15 point rating scale. The scale values range from −7 to +7 with −7 representing a very great deal worse menstrual blood loss than the previous period, and +7 representing a very great deal better menstrual blood loss than the previous period. The midpoint (0) represents the perception of about the same menstrual blood loss as the previous period.
The ability to detect change required that values for the item or instrument change when the concept it measures changed. In order to measure the MI items ability to detect change, longitudinal data were evaluated focusing primarily on the changes from baseline to month 1. Differences in proportions and comparisons between treatment and normal groups were compared using chi-square statistics (the Stuart-Maxwell test testing marginal homogeneity for all categories simultaneously). […] The Cohen Effect Size was computed by taking the mean change in measure score (baseline to month 1) and dividing that by the standard deviation of mean baseline score.^2 ^2 Cohen, J. J. (1988). Statistical power analysis for the behavioral sciences (p. 8). Erlbaum: Hillsdale, N.J.

heavy menstrual bleeding [2] = details: open label uncontrolled, 849 patients; cited from earlier work
heavy menstrual bleeding [3] = details: cited from earlier work
[4] = Randomized single-dose 4-way crossover bioequivalence/bioavailability study, fasting; design: species or system human (healthy female volunteers); details: female, human, in vivo, iv
women with menorrhagia [5] = assay: Example VII double-blind placebo-controlled clinical study, three treated menstrual periods; details: for proportion of responders (reduction in MBL and meaningful improvement, MI measure 6c): after first treated cycle, p<0.0001 vs placebo
Method: (§1) This was a multi-center, double-blind, placebo-controlled, parallel-group study.
The primary objective of the study was to determine the efficacy of a 1.95 gm/day of tranexamic acid (650 mg orally three times daily, TID) and 3.9 gm/day of tranexamic acid (1.3 gm orally three times daily, TID) administered during menstruation for up to 5 days (maximum of 15 doses) to reduce menstrual blood loss in women with objective evidence of heavy menstrual bleeding.
The secondary objective of the study was to determine the improvement with administration of 1.95 gm/day or 3.9 gm/day of tranexamic acid in women with heavy menstrual bleeding in their symptoms including, Limitation in Social Leisure Activities (LSLA) and Limitation in Physical Activities (LPA) scores from the Menorrhagia Instrument Measures (FIG. 1). Further the objective was to determine the safety of the 1.95 gm/day and 3.9 gm/day of the modified release tranexamic acid formulation administered during menstruation.
All periods were evaluated for the secondary endpoints, and for safety of tranexamic acid at an oral dose of 1.3 gm or placebo administered three (3) times daily for up to five consecutive (5) days (maximum of 15 doses) during menstruation.
Menstrual blood loss (MBL) was assessed during the entire menstrual period by the alkaline hematin test (AHT) method. The Menorrhagia Instrument Measures (FIG. 1) were also administered immediately after each menstrual period under investigation. For the Primary Endpoint, the objective reduction in menstrual blood loss (MBL) during the entire menstrual period as assessed by the AHT Method was assessed.
For the Secondary Endpoints, the scores for Limitation in Social Leisure Activities (LSLA) and the scores for Limitation in Physical Activities (LPA) from the Menorrhagia Instrument Measures (MI), measures #4 and #3, respectively) were assessed.
For the Secondary Endpoints the data collected included at least; Menstrual Blood Loss (MBL) assessment score (MI measure 1), Limitation in Work Outside or Inside the Home (LWH) score (MI item 2), and subject assessment of meaningfulness score from the MI (measure 6) (used for the MBL responder analysis).
(§2) The efficacy results were based on the modified ITT (mITT) populations.

women with menorrhagia [6] = assay: Example VIII double-blind placebo-controlled clinical study, six treated menstrual periods
Method: as §1
Menstrual blood loss (MBL) was assessed during the entire menstrual period by the alkaline hematin test (AHT) method. Measures from the Menorrhagia Instrument (FIG. 1) were also administered immediately after each menstrual period under investigation. Subjects reported large stains exceeding the capacity of sanitary protection (and other patient reported outcome [PRO] items) during the menstrual period in daily diaries.
For the Primary Endpoint, the objective reduction in menstrual blood loss (MBL) during the entire menstrual period as assessed by the AHT Method was assessed.
For the Secondary Endpoints, the Limitation in Social Leisure Activities (LSLA) and the Limitation in Physical Activities (LPA) scores from the Menorrhagia Instrument (MI measures #4 and #3, respectively) and the total number of large stains responder analysis during the menstrual period from subject diaries were assessed.
For the Secondary Endpoints, assessment of the following were included, Menstrual Blood Loss (MBL) assessment score (MI measure #1), Limitation in Work Outside or Inside the Home (LWH) score (MI measure #2), and subject assessment of meaningfulness score from the MI (Measure #6) (used for the MBL responder analysis).
as §2

[7] = treatment group, 3.9 g daily, score 1-5, n 126
[8] = treatment group, baseline to month 1
[9] = treatment group, Cohen effect size
[10] = women on treatment who reported a meaningful improvement
[11] = 3.9 g/day compared with placebo

With NC[C@H]1CC[C@H](C(=O)O)CC1 [tranexamic acid] the “calculated effect size, range over the four MI items” value ([1]; treatment group) was −0.9 to −1.2, the “mean change in response from baseline to month 1, range over the four MI items” value ([1]; treatment group) was −0.76 to −1.16 and the “MI Item 1 self-perceived blood loss, Month 1 mean” value ([1]; treatment group, 3.9 g daily oral up to 5 days, score 1-4, n 126) was 2.49. For the same compound, the “MI Item 2 limit you in your work, Month 1 mean” value [1, 7] was 2.12, the “MI Item 3 limit you in your physical activities, Month 1 mean” value [1, 7] was 2.13 and the “MI Item 4 limit you in your social/leisure activities, Month 1 mean” value [1, 7] was 2.00. For the same compound, the “MI Item 1 self-perceived blood loss, mean change” value [1, 8] was −0.76, the “MI Item 2 limit you in your work, mean change” value [1, 8] was −0.93 and the “MI Item 3 limit you in your physical activities, mean change” value [1, 8] was −1.16. For the same compound, the “MI Item 4 limit you in your social/leisure activities, mean change” value [1, 8] was −1.06, the “women on treatment who reported a meaningful improvement” value ([1]; treatment group, month 1, MI measure 6/6c) was 78.6% and the “MI Item 2 limit you in your work, Effect Size” value [1, 9] was −0.939. The “MI Item 3 limit you in your physical activities, Effect Size” value [1, 9] was −1.221, the “MI Item 4 limit you in your social/leisure activities, Effect Size” value [1, 9] was −1.000 and the “MI Item 1 self-perceived blood loss, Effect Size” value ([1]; treatment group, Cohen effect size, mean change / SD of baseline) was −1.226. The “improvement in MI item 3 (physical activities)” value [1, 10] was 1.29, the “improvement in MI item 4 (social/leisure activities)” value [1, 10] was 1.17 and the “women satisfied with the treatment” value (heavy menstrual bleeding [2]) was 80%. For the same compound, the “efficacy in the treatment of HMB” value (heavy menstrual bleeding [3]; doses of ˜4 g/day (typically 1 g every 6 hours), immediate-release) was “effective”, the side effects (heavy menstrual bleeding [3]; doses of ˜4 g/day (typically 1 g every 6 hours)) was “few side effects” and the “reduction of heavy menstrual bleeding” value (heavy menstrual bleeding [3]; research from European countries) was 40-50%. For the same compound, the clearance [4] was 137 mL/min, the half-life [4] was 10.2 h and the “clinical relevance of mean reduction in menstrual blood loss (criteria: >50 mL; at least 36 mL meaningful)” value (women with menorrhagia [5]; 1.9 and 3.9 g/day) was “met both criteria for a clinically meaningful result”. For the same compound, the “proportion of responders (reduction in MBL and meaningful improvement, MI measure 6c)” value (women with menorrhagia [5]; 1.95 g/day) was 58.3%, the “LWH (MI measure 2)” value (women with menorrhagia [5]; [11]) was “significantly reduced” and the “subjects' assessment of MBL (MI item 1)” value (women with menorrhagia [5]; [11]) was “significantly reduced”. For the same compound, the “proportion of responders (reduction in MBL and meaningful improvement, MI measure 6c)” value (women with menorrhagia [5]; 3.9 g/day) was 71.0%, the “mean LPA score, change from baseline” value (women with menorrhagia [5]; Limitation in Physical Activities, MI measure 3) was “Significant treatment-related reductions” and the “mean LSLA score, change from baseline” value (women with menorrhagia [5]; Limitation in Social Leisure Activities, MI measure 4) was “Significant treatment-related reductions”. For the same compound, the “LWH (MI measure #2)” value (women with menorrhagia [6]; [11]) was “significantly reduced”, the “subjects' assessment of MBL (MI measure #1)” value (women with menorrhagia [6]; [11]) was “significantly reduced” and the “mean LPA score, change from baseline” value (women with menorrhagia [6]; 3.9 g/day, MI measure 3) was “significant treatment-related reductions”. The “mean LSLA score, change from baseline” value (women with menorrhagia [6]; 3.9 g/day, MI measure 4) was “significant treatment-related reductions”, the “proportion of responders (reduction in MBL and meaningful improvement, MI measure #6c)” value (women with menorrhagia [6]; 3.9 g/day, after first treated cycle, p<0.0001 vs placebo) was 65.4% and the “regression slope of MBL response over six menstrual cycles” value (women with menorrhagia [6]; 3.9 g/day, p=0.615) was −0.90 mL/cycle.
